Six compounds from PubChem BioAssay (NCI) can be followed below.

Test systems include A549 NSCLC; HOP-92 NSCLC; K-562 leukemia; M14 melanoma; MCF7 breast; MDA-MB-435; OVCAR-8 ovarian; SF-268 CNS; SF-295 CNS; SK-OV-3 ovarian; UACC-257 melanoma; SK-MEL-5 melanoma; SW-620 colon.
Common to all, as to experiment: NCI tumour cell line growth inhibition, 48 h

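In this assay, cells in 96-well plates receive the compound at five concentrations for 48 hours. Endpoints are linearly interpolated between the surrounding concentrations. The concentration for 50% growth inhibition is given as GI50. TGI denotes the concentration required for complete inhibition of growth.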

On to `Cc1ccc(-c2csc(=Nc3c(C)n(C)n(-c4ccccc4)c3=O)n2CCO)cc1`, for which the TGI in the assay on A549 NSCLC, in the assay with HOP-92 NSCLC, in the assay on K-562 leukemia, in the assay with M14 melanoma, with MCF7 breast and with MDA-MB-435 was above 100 µM in each case. In addition, the TGI in the assay on OVCAR-8 ovarian, with SF-268 CNS, in the assay on SF-295 CNS, in the assay with SK-OV-3 ovarian and with UACC-257 melanoma was above 100 µM in each case.
On to `CCCCCCCCCCCCCCCCOCC(COP(=O)([O-])OCC[N+](C)(C)C)OCCCCCCCCCCCCCCCC` (stereo unspecified), for which the TGI with HOP-92 NSCLC, in the assay with K-562 leukemia, in the assay on OVCAR-8 ovarian, in the assay with SF-268 CNS, in the assay with SF-295 CNS and with SK-MEL-5 melanoma was above 100 µM in each case. Also, the TGI in the assay with SK-OV-3 ovarian, with SW-620 colon and in the assay with UACC-257 melanoma was above 100 µM throughout.
With `COc1cc2c3c(n(CCCNCCCNCCCn4c5c(c6ccccc6c4=O)C(=O)c4ccccc4-5)c(=O)c2cc1OC)-c1cc2c(cc1C3=O)OCO2`, the GI50 in the assay with A549 NSCLC was 0.0201 µM; in the assay with K-562 leukemia, 0.0403 µM; in the assay with M14 melanoma, 0.987 µM; in the assay on MDA-MB-435, 0.154 µM; with SF-268 CNS, below 0.01 µM; in the assay on SK-MEL-5 melanoma, 0.0298 µM. Further, the GI50 in the assay on SW-620 colon is below 0.01 µM. Moreover, the TGI is 2.3 µM in the assay with A549 NSCLC; above 100 µM in the assay on K-562 leukemia; 2.15 µM in the assay with M14 melanoma; 1.68 µM with MDA-MB-435; 0.0217 µM with SF-268 CNS; 0.634 µM in the assay with SK-MEL-5 melanoma. For the same compound, the TGI in the assay with SW-620 colon worked out at 0.197 µM.
In the case of `CC(C)[C@](O)(C(=O)OCC1CC[N+]2([O-])CC[C@@H](O)C12)[C@H](C)O` (stereo partly specified), the TGI with A549 NSCLC, in the assay on HOP-92 NSCLC, in the assay with K-562 leukemia, in the assay with MCF7 breast, in the assay with OVCAR-8 ovarian and with SF-268 CNS was above 375 µM throughout. The TGI in the assay on SF-295 CNS, with SK-MEL-5 melanoma, in the assay on SK-OV-3 ovarian, in the assay with SW-620 colon and in the assay with UACC-257 melanoma was above 375 µM each time.
Consider `CC(C)(C)C(=O)C(C(c1ccccc1)N1CCOCC1)N1CCOCC1` (stereo unspecified), for which the TGI in the assay with A549 NSCLC, with HOP-92 NSCLC, with K-562 leukemia, in the assay with M14 melanoma, in the assay on MDA-MB-435 and with OVCAR-8 ovarian was above 100 µM each time. Besides, the TGI in the assay with SF-268 CNS, in the assay with SF-295 CNS, in the assay on SW-620 colon and in the assay with UACC-257 melanoma was above 100 µM throughout.
As to `COc1ccc(N2C(=O)C3c4[nH]c5cccc(C)c5c4C4CCC(C(C)(C)C)CC4C3C2=O)cc1` (stereo unspecified), the TGI in the assay with A549 NSCLC, in the assay with K-562 leukemia, in the assay with M14 melanoma, in the assay on MCF7 breast, in the assay with MDA-MB-435 and in the assay with OVCAR-8 ovarian was above 10 µM in each case. In addition, the TGI in the assay with SF-268 CNS, in the assay with SF-295 CNS, in the assay on SK-MEL-5 melanoma, in the assay on SK-OV-3 ovarian and in the assay on SW-620 colon was above 10 µM each time.
